Test results reported in PubChem BioAssay (NCI).
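Cultured in 96-well plates, cells were exposed to test compound for 48 hours across five concentrations. TGI: total growth inhibition.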

Legend:
Test in all cases: NCI-60 cell line screen, 48 h
[1] = tested on: 786-0 renal
[2] = tested on: A498 renal
[3] = tested on: A549 NSCLC
[4] = tested on: ACHN renal
[5] = tested on: CAKI-1 renal
[6] = tested on: CCRF-CEM leukemia
[7] = tested on: COLO 205 colon
[8] = tested on: DLD-1 colon
[9] = tested on: DMS 114 small cell lung
[10] = tested on: DMS 273 small cell lung
[11] = tested on: EKVX NSCLC
[12] = tested on: HCC-2998 colon
[13] = tested on: HCT-116 colon
[14] = tested on: HCT-15 colon
[15] = tested on: HL-60(TB) leukemia
[16] = tested on: HOP-18 NSCLC
[17] = tested on: HOP-62 NSCLC
[18] = tested on: HOP-92 NSCLC
[19] = tested on: HT29 colon
[20] = tested on: IGROV1 ovarian
[21] = tested on: K-562 leukemia
[22] = tested on: KM12 colon
[23] = tested on: KM20L2 colon
[24] = tested on: LOX IMVI melanoma
[25] = tested on: LXFL 529 NSCLC
[26] = tested on: M14 melanoma
[27] = tested on: M19-MEL melanoma
[28] = tested on: MALME-3M melanoma
[29] = tested on: MOLT-4 leukemia
[30] = tested on: NCI-H226 lung
[31] = tested on: NCI-H23 lung
[32] = tested on: NCI-H460 lung
[33] = tested on: NCI-H522 lung
[34] = tested on: OVCAR-3 ovarian
[35] = tested on: OVCAR-5 ovarian
[36] = tested on: OVCAR-8 ovarian
[37] = tested on: RPMI-8226 leukemia
[38] = tested on: RXF 393 renal
[39] = tested on: SF-268 CNS
[40] = tested on: SF-295 CNS
[41] = tested on: SF-539 CNS
[42] = tested on: SK-MEL-2 melanoma
[43] = tested on: SK-MEL-28 melanoma
[44] = tested on: SK-MEL-5 melanoma
[45] = tested on: SK-OV-3 ovarian
[46] = tested on: SN12C renal
[47] = tested on: SNB-19 CNS
[48] = tested on: SNB-75 CNS
[49] = tested on: SNB-78 CNS
[50] = tested on: SR leukemia
[51] = tested on: SW-620 colon
[52] = tested on: TK-10 renal
[53] = tested on: U251 CNS
[54] = tested on: UACC-257 melanoma
[55] = tested on: UACC-62 melanoma
[56] = tested on: UO-31 renal
[57] = tested on: XF 498 CNS
[58] = tested on: OVCAR-4 ovarian

Measured: TGI

NC(=O)C(=O)N/N=C1\C(=O)N(c2ccc(Cl)cc2Cl)C(=O)C1C(=O)Nc1ccc(Cl)cc1Cl (stereo unspecified)
not listed: [58]
> 100 µM: all other assays above

Cc1ccc2c(c1)C(=O)N(N(C)C)CC(=O)N2
not listed: [1] | [23] | [38] | [46]
> 100 µM: all other assays above
